Results taken from patent publication US11771738B2 (Zoetis Services LLC, priority 2018, dated 2023).
Read-outs that look alike come from different tables or passages of the source.

Legend:
Type in all cases: cell-based
[1] = system: microfilariae of Dirofilaria immitis; experiment: Dirofilaria immitis, Microfilaria (DiMf) In Vitro Assay; settings: Dirofilaria immitis, 72 h, read-out: DiMf MED, Minimum Effective Dose, D. immitis microfilariae motility, in vitro
D. immitis L4 larvae = experiment: Dirofilaria immitis, L4 Stage (DiL4) In Vitro Assay; settings: for minimal effective concentration: Dirofilaria immitis, 72 h, read-out: DiL4 MED, Minimum Effective Dose, D. immitis L4 larvae motility, in vitro; for DiMf/DiL4: larval stage selectivity, ratio of DiMf MED to DiL4 MED
[2] = system: third stage larvae of Haemonchus contortus; experiment: Haemonchus contortus, Larvae Stage 3 (HcL3) In Vitro Assay; settings: Haemonchus contortus, 96 h
[3] = read-out: HcL3 MED, Minimum Effective Dose, H. contortus third stage larvae, approximately 96 hours
[4] = read-out: HcL3 MED, Haemonchus contortus third stage larvae in vitro, class mark appended to the Ex # in Table 3
[5] = read-out: HcL3 MED, approximately 96 hours incubation, multiple-resistant field isolate

`CC(C)C[C@H]1C(=O)O[C@H](Cc2ccc(Cc3cccc(F)n3)cc2)C(=O)N(C)[C@@H](CC(C)C)C(=O)O[C@H](C)C(=O)N(C)[C@@H](CC(C)C)C(=O)O[C@H](Cc2ccc(Cc3cccc(F)n3)cc2)C(=O)N(C)[C@@H](CC(C)C)C(=O)O[C@H](C)C(=O)N1C` [Example 3-313, (3S,6R,9S,12R,15S,18R,21S,24R)-6,18-bis(4-((6-fluoropyridin-2-yl)methyl)benzyl)-3,9,15,21-tetraisobutyl-4,10,12,16,22,24-hexamethyl-1,7,13,19-tetraoxa-4,10,16,22-tetraazacyclotetracosan-2,5,8,11,14,17,20,23-octaone] showed a minimal effective concentration [1] of 0.003 µM, a minimal effective concentration (D. immitis L4 larvae) of 0.00055 µM and a DiMf/DiL4 (D. immitis L4 larvae) of 5.5. For the same compound, the minimal effective concentration [2, 3] was 0.55 µM.

In the case of `CC(C)C[C@H]1C(=O)O[C@H](Cc2ccc(Cc3cncnc3C(F)(F)F)cc2)C(=O)N(C)[C@@H](CC(C)C)C(=O)O[C@H](C)C(=O)N(C)[C@@H](CC(C)C)C(=O)O[C@H](Cc2ccc(Cc3cncnc3C(F)(F)F)cc2)C(=O)N(C)[C@@H](CC(C)C)C(=O)O[C@H](C)C(=O)N1C` [Example 3-318, (3S,6R,9S,12R,15S,18R,21S,24R)-3,9,15,21-tetraisobutyl-4,6,10,16,18,22-hexamethyl-12,24-bis(4-((4-(trifluoromethyl)pyrimidin-5-yl)methyl)benzyl)-1,7,13,19-tetraoxa-4,10,16,22-tetraazacyclotetracosan-2,5,8,11,14,17,20,23-octaone], the minimal effective concentration [1] is reported as 0.0003 µM, the minimal effective concentration (D. immitis L4 larvae) is reported as 3e-05 µM and the DiMf/DiL4 (D. immitis L4 larvae) is reported as 10. For the same compound, the minimal effective concentration [2, 3] was 0.55 µM.

Work on `CC(C)C[C@H]1C(=O)O[C@H](Cc2ccc(Cc3cccnc3Cl)cc2)C(=O)N(C)[C@@H](CC(C)C)C(=O)O[C@H](C)C(=O)N(C)[C@@H](CC(C)C)C(=O)O[C@H](Cc2ccc(Cc3cccnc3Cl)cc2)C(=O)N(C)[C@@H](CC(C)C)C(=O)O[C@H](C)C(=O)N1C` [Example 3-319, (3S,6R,9S,12R,15S,18R,21S,24R)-6,18-bis(4-((2-chloropyridin-3-yl)methyl)benzyl)-3,9,15,21-tetraisobutyl-4,10,12,16,22,24-hexamethyl-1,7,13,19-tetraoxa-4,10,16,22-tetraazacyclotetracosan-2,5,8,11,14,17,20,23-octaone] yielded a minimal effective concentration [1] of 0.00173 µM, a minimal effective concentration (D. immitis L4 larvae) of 5.5e-05 µM and a DiMf/DiL4 (D. immitis L4 larvae) of 31.5. For the same compound, the minimal effective concentration [2, 4] was under 1 µM, the minimal effective concentration [2, 3] was 0.55 µM and the minimal effective concentration [2, 5] was at most 1 µM.

Compound `CC(C)C[C@H]1C(=O)O[C@H](Cc2ccc(Cc3cncnc3C(F)F)cc2)C(=O)N(C)[C@@H](CC(C)C)C(=O)O[C@H](C)C(=O)N(C)[C@@H](CC(C)C)C(=O)O[C@H](Cc2ccc(Cc3cncnc3C(F)F)cc2)C(=O)N(C)[C@@H](CC(C)C)C(=O)O[C@H](C)C(=O)N1C` [Example 3-321, (3S,6R,9S,12R,15S,18R,21S,24R)-6,18-bis(4-((4-(difluoromethyl)pyrimidin-5-yl)methyl)benzyl)-3,9,15,21-tetraisobutyl-4,10,12,16,22,24-hexamethyl-1,7,13,19-tetraoxa-4,10,16,22-tetraazacyclotetracosan-2,5,8,11,14,17,20,23-octaone] has a minimal effective concentration [1] of 5e-05 µM, a minimal effective concentration (D. immitis L4 larvae) of 2e-05 µM and a DiMf/DiL4 (D. immitis L4 larvae) of 2.5. The minimal effective concentration [2, 4] was under 1 µM, the minimal effective concentration [2, 3] was 0.3 µM and the minimal effective concentration [2, 5] was at most 1 µM.

`Cc1cc(F)ncc1Cc1ccc(C[C@H]2OC(=O)[C@H](CC(C)C)N(C)C(=O)[C@@H](C)OC(=O)[C@H](CC(C)C)N(C)C(=O)[C@@H](Cc3ccc(Cc4cnc(F)cc4C)cc3)OC(=O)[C@H](CC(C)C)N(C)C(=O)[C@@H](C)OC(=O)[C@H](CC(C)C)N(C)C2=O)cc1` [Example 3-322, (3S,6R,9S,12R,15S,18R,21S,24R)-6,18-bis(4-((6-fluoro-4-methylpyridin-3-yl)methyl)benzyl)-3,9,15,21-tetraisobutyl-4,10,12,16,22,24-hexamethyl-1,7,13,19-tetraoxa-4,10,16,22-tetraazacyclotetracosan-2,5,8,11,14,17,20,23-octaone] was tested, and the minimal effective concentration [1] was 0.01 µM, the minimal effective concentration (D. immitis L4 larvae) was 0.0003 µM and the DiMf/DiL4 (D. immitis L4 larvae) was 33.3. The minimal effective concentration [2, 3] was 10 µM.

For `CC(C)C[C@H]1C(=O)O[C@H](Cc2ccc(Cc3cccnc3F)cc2)C(=O)N(C)[C@@H](CC(C)C)C(=O)O[C@H](C)C(=O)N(C)[C@@H](CC(C)C)C(=O)O[C@H](Cc2ccc(Cc3cccnc3F)cc2)C(=O)N(C)[C@@H](CC(C)C)C(=O)O[C@H](C)C(=O)N1C` [Example 3-323, (3S,6R,9S,12R,15S,18R,21S,24R)-6,18-bis(4-((2-fluoropyridin-3-yl)methyl)benzyl)-3,9,15,21-tetraisobutyl-4,10,12,16,22,24-hexamethyl-1,7,13,19-tetraoxa-4,10,16,22-tetraazacyclotetracosan-2,5,8,11,14,17,20,23-octaone], the minimal effective concentration [1] was 0.001 µM, the minimal effective concentration (D. immitis L4 larvae) was 0.0001 µM and the DiMf/DiL4 (D. immitis L4 larvae) was 10. The minimal effective concentration [2, 4] was under 1 µM, the minimal effective concentration [2, 3] was 0.3 µM and the minimal effective concentration [2, 5] was at most 1 µM.

`CC(C)C[C@H]1C(=O)O[C@H](Cc2ccc(Cc3ccnc(F)c3F)cc2)C(=O)N(C)[C@@H](CC(C)C)C(=O)O[C@H](C)C(=O)N(C)[C@@H](CC(C)C)C(=O)O[C@H](Cc2ccc(Cc3ccnc(F)c3F)cc2)C(=O)N(C)[C@@H](CC(C)C)C(=O)O[C@H](C)C(=O)N1C` [Example 3-326, (3S,6R,9S,12R,15S,18R,21S,24R)-6,18-bis(4-((2,3-difluoropyridin-4-yl)methyl)benzyl)-3,9,15,21-tetraisobutyl-4,10,12,16,22,24-hexamethyl-1,7,13,19-tetraoxa-4,10,16,22-tetraazacyclotetracosan-2,5,8,11,14,17,20,23-octaone] gave a minimal effective concentration [1] of 0.03 µM, a minimal effective concentration (D. immitis L4 larvae) of 0.0003 µM and a DiMf/DiL4 (D. immitis L4 larvae) of 100. For the same compound, the minimal effective concentration [2, 3] was 10 µM.

Compound `CC(C)C[C@H]1C(=O)O[C@H](Cc2ccc(Cc3cccnc3Br)cc2)C(=O)N(C)[C@@H](CC(C)C)C(=O)O[C@H](C)C(=O)N(C)[C@@H](CC(C)C)C(=O)O[C@H](Cc2ccc(Cc3cccnc3Br)cc2)C(=O)N(C)[C@@H](CC(C)C)C(=O)O[C@H](C)C(=O)N1C` [Example 3-329, (3S,6R,9S,12R,15S,18R,21S,24R)-6,18-bis(4-((2-bromopyridin-3-yl)methyl)benzyl)-3,9,15,21-tetraisobutyl-4,10,12,16,22,24-hexamethyl-1,7,13,19-tetraoxa-4,10,16,22-tetraazacyclotetracosan-2,5,8,11,14,17,20,23-octaone] has a minimal effective concentration [1] of 0.001 µM, a minimal effective concentration (D. immitis L4 larvae) of 0.0001 µM and a DiMf/DiL4 (D. immitis L4 larvae) of 10. It also gave a minimal effective concentration [2, 4] of under 1 µM and a minimal effective concentration [2, 5] of at most 1 µM.

`CC(C)C[C@H]1C(=O)O[C@H](Cc2ccc(Cc3cnccc3C(F)(F)F)cc2)C(=O)N(C)[C@@H](CC(C)C)C(=O)O[C@H](C)C(=O)N(C)[C@@H](CC(C)C)C(=O)O[C@H](Cc2ccc(Cc3cnccc3C(F)(F)F)cc2)C(=O)N(C)[C@@H](CC(C)C)C(=O)O[C@H](C)C(=O)N1C` [Example 3-333, (3S,6R,9S,12R,15S,18R,21S,24R)-3,9,15,21-tetraisobutyl-4,6,10,16,18,22-hexamethyl-12,24-bis(4-((4-(trifluoromethyl)pyridin-3-yl)methyl)benzyl)-1,7,13,19-tetraoxa-4,10,16,22-tetraazacyclotetracosan-2,5,8,11,14,17,20,23-octaone] was tested, and the minimal effective concentration [1] was 0.003 µM, the minimal effective concentration (D. immitis L4 larvae) was 0.0002 µM and the DiMf/DiL4 (D. immitis L4 larvae) was 17. For the same compound, the minimal effective concentration [2, 4] was under 1 µM and the minimal effective concentration [2, 5] was at most 1 µM.

Compound `COc1nccc(Cc2ccc(C[C@H]3OC(=O)[C@H](CC(C)C)N(C)C(=O)[C@@H](C)OC(=O)[C@H](CC(C)C)N(C)C(=O)[C@@H](Cc4ccc(Cc5ccnc(OC)c5OC)cc4)OC(=O)[C@H](CC(C)C)N(C)C(=O)[C@@H](C)OC(=O)[C@H](CC(C)C)N(C)C3=O)cc2)c1OC` [Example 3-334, (3S,6R,9S,12R,15S,18R,21S,24R)-6,18-bis(4-((2,3-dimethoxypyridin-4-yl)methyl)benzyl)-3,9,15,21-tetraisobutyl-4,10,12,16,22,24-hexamethyl-1,7,13,19-tetraoxa-4,10,16,22-tetraazacyclotetracosan-2,5,8,11,14,17,20,23-octaone] has a minimal effective concentration [1] of 0.003 µM, a minimal effective concentration (D. immitis L4 larvae) of 0.0003 µM and a DiMf/DiL4 (D. immitis L4 larvae) of 10. It also gave a minimal effective concentration [2, 4] of under 1 µM, a minimal effective concentration [2, 3] of 0.1 µM and a minimal effective concentration [2, 5] of at most 1 µM.

In the case of `CC(C)C[C@H]1C(=O)O[C@H](Cc2ccc(Cc3ccc4cn[nH]c4c3)cc2)C(=O)N(C)[C@@H](CC(C)C)C(=O)O[C@H](C)C(=O)N(C)[C@@H](CC(C)C)C(=O)O[C@H](Cc2ccccc2)C(=O)N(C)[C@@H](CC(C)C)C(=O)O[C@H](C)C(=O)N1C` [Example 4-18, (3S,6R,9S,12R,15S,18R,21S,24R)-6-(4-((1H-indazol-6-yl)methyl)benzyl)-18-benzyl-3,9,15,21-tetraisobutyl-4,10,12,16,22,24-hexamethyl-1,7,13,19-tetraoxa-4,10,16,22-tetraazacyclotetracosan-2,5,8,11,14,17,20,23-octaone], the minimal effective concentration [1] is reported as 0.05 µM, the minimal effective concentration (D. immitis L4 larvae) is reported as 0.001 µM and the DiMf/DiL4 (D. immitis L4 larvae) is reported as 50. For the same compound, the minimal effective concentration [2, 3] was over 10 µM.

`Cc1c[nH]c(C)c1Cc1ccc(C[C@H]2OC(=O)[C@H](CC(C)C)N(C)C(=O)[C@@H](C)OC(=O)[C@H](CC(C)C)N(C)C(=O)[C@@H](Cc3ccccc3)OC(=O)[C@H](CC(C)C)N(C)C(=O)[C@@H](C)OC(=O)[C@H](CC(C)C)N(C)C2=O)cc1` [Example 4-19, (3S,6R,9S,12R,15S,18R,21S,24R)-6-benzyl-18-(4-((2,4-dimethyl-1H-pyrrol-3-yl)methyl)benzyl)-3,9,15,21-tetraisobutyl-4,10,12,16,22,24-hexamethyl-1,7,13,19-tetraoxa-4,10,16,22-tetraazacyclotetracosan-2,5,8,11,14,17,20,23-octaone] was tested, and the minimal effective concentration [1] was 0.1 µM, the minimal effective concentration (D. immitis L4 larvae) was 0.001 µM and the DiMf/DiL4 (D. immitis L4 larvae) was 100. The minimal effective concentration [2, 3] was over 10 µM.
